From patent US20230227427A1, “IL-17A MODULATORS” (SANOFI, priority 2010, published 2023)

Target: T1, human recombinant IL-17A (Homo sapiens, UniProt Q16552)
T1 construct: purchased R&D Systems 7955-IL/CF
T1 sequence (Q16552 24-155): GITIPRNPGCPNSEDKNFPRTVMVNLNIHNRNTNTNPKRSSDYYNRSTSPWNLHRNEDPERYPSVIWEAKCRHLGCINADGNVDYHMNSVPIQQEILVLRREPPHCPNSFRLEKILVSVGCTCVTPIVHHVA
Assay: IL-17A AlphaLISA assay (block binding of IL-17A to its receptor IL-17RA)
Conditions: compounds pre-incubated with the IL-17A for 30 min (indicated by * in Table A); read-out: AlphaLISA pIC50 (converted)
Procedure: The ability of the compounds to block binding of IL-17A to its receptor, IL-17RA, was analysed in a competition assay using AlphaLISA technology (Perkin Elmer). The assay is a bead based AlphaLISA where the IL-17RA is captured on the acceptor bead via an Fc tag and IL-17A is captured on the streptavidin donor bead via a biotinylated anti-IL17A antibody.
Assay buffer was prepared by adding 0.05% Tween-20 (v/v) and 0.1% BSA to Phosphate Buffered Saline (PBS). The assay was carried out in 384-well white low volume plates (Corning 4512). 10 µL of a 7.5 nM stock of human recombinant IL-17A (R&D Systems 7955-IL/CF) diluted in assay buffer was dispensed into the assay plate and compounds or DMSO vehicle control were added in a volume of 75 nL using a D300 dispenser (Hewlett Packard). The compounds were pre-incubated with the IL-17A for 24 h at room temperature (or for 30 min, where indicated by * in Table A below) prior to addition of 5 μL of a 5 nM stock of human recombinant IL-17RA/Fc chimera (R&D Systems 177-IR-100) diluted in assay buffer. The IL-17A was incubated with the receptor for a further 90 minutes at room temperature before addition of 5 μL of a mixture of anti-human Fc IgG acceptor beads (75 μg/mL, Perkin Elmer AL103C) and anti-IL-17A biotin conjugated antibody (5 nM, Enzo Life Sciences, ENZ-ABS278-0100) in assay buffer. After a further 30 min incubation at room temperature, 5 μL of streptavidin donor beads ([…], Perkin Elmer 6760002S) were added and the plate was incubated for 3 h in the dark.
The luminescence signal was measured using an Enspire plate reader (Perkin Elmer) with excitation at 680 nm and emission at 615 nm. Data were analysed using GraphPad Prism and fitted to a 4-parameter logistic equation. The IC50 values were calculated using the DMSO vehicle as the negative control and a high concentration (6 μM) of a reference IL-17A inhibitor as the positive control.
Activity of the Example compounds is reported as a PIC50 value in Table A.

IC50	SMILES
251 nM	Cc1cncc(C)c1-c1ccc(NC(=O)[C@@H](NC(=O)c2ccnn2C)C2CCC(F)(F)CC2)cc1 (single isomer, unassigned) [Example 98]
200 nM	Cc1cncc(C)c1-c1ccc(NC(=O)[C@@H](NC(=O)c2ccnn2C)C2CCC(C)(C)CC2)cc1 (single isomer, unassigned) [Example 100]

Same assay, conditions: compounds pre-incubated with the IL-17A for 24 h at room temperature; read-out: AlphaLISA pIC50 (converted)

SMILES	IC50
Cn1nccc1C(=O)N[C@H](C(=O)Nc1ccc(-c2ccncc2Cl)cc1)C(c1ccccc1)c1ccccc1 [Example 2, (S)—N-(1-((4-(3-chloropyridin-4-yl)phenyl)amino)-1-oxo-3,3-diphenylpropan-2-yl)-1-methyl-1H-pyrazole-5-carboxamide]	31.6 nM
COc1cnccc1-c1ccc(NC(=O)[C@@H](NC(=O)c2ccnn2C)C(c2ccccc2)c2ccccc2)cc1 [Example 3, (S)—N-(1-((4-(3-methoxypyridin-4-yl)phenyl)amino)-1-oxo-3,3-diphenylpropan-2-yl)-1-methyl-1H-pyrazole-5-carboxamide]	12.6 nM
Cn1nccc1C(=O)N[C@H](C(=O)Nc1ccc(-c2ccncc2C(F)(F)F)cc1)C(c1ccccc1)c1ccccc1 [Example 5, (S)-1-methyl-N-(1-oxo-3,3-diphenyl-1-((4-(3-(trifluoromethyl)pyridin-4-yl)phenyl)amino)propan-2-yl)-1H-pyrazole-5-carboxamide]	63.1 nM
CNc1cnccc1-c1ccc(NC(=O)[C@@H](NC(=O)c2ccnn2C)C(c2ccccc2)c2ccccc2)cc1 [Example 7, (S)-1-methyl-N-(1-((4-(3-(methylamino)pyridin-4-yl)phenyl)amino)-1-oxo-3,3-diphenylpropan-2-yl)-1H-pyrazole-5-carboxamide]	12.6 nM
CN(C)c1cnccc1-c1ccc(NC(=O)[C@@H](NC(=O)c2ccnn2C)C(c2ccccc2)c2ccccc2)cc1 [Example 8, (S)—N-(1-((4-(3-(dimethylamino)pyridin-4-yl)phenyl)amino)-1-oxo-3,3-diphenylpropan-2-yl)-1-methyl-1H-pyrazole-5-carboxamide]	15.8 nM
COc1cncc(OC)c1-c1ccc(NC(=O)[C@@H](NC(=O)c2ccnn2C)C(c2ccccc2)c2ccccc2)cc1 [Example 9, (S)—N-(1-((4-(3,5-dimethoxypyridin-4-yl)phenyl)amino)-1-oxo-3,3-diphenylpropan-2-yl)-1-methyl-1H-pyrazole-5-carboxamide]	6.31 nM
COc1cncc(F)c1-c1ccc(NC(=O)[C@@H](NC(=O)c2ccnn2C)C(c2ccccc2)c2ccccc2)cc1 [Example 10, (S)—N-(1-((4-(3-fluoro-5-methoxypyridin-4-yl)phenyl)amino)-1-oxo-3,3-diphenylpropan-2-yl)-1-methyl-1H-pyrazole-5-carboxamide]	7.94 nM
COc1cnccc1-c1ccc(NC(=O)[C@@H](NC(=O)c2ccnn2C)C(c2ccc(F)cc2)c2ccc(F)cc2)cc1 [Example 19, (S)—N-(1,1-bis(4-fluorophenyl)-3-((4-(3-methoxypyridin-4-yl)phenyl)amino)-3-oxopropan-2-yl)-1-methyl-1H-pyrazole-5-carboxamide]	63.1 nM
Cn1nccc1C(=O)N[C@H](C(=O)Nc1ccc(-c2ccnc3[nH]ccc23)cc1)C(c1ccccc1)c1ccccc1 [Example 21, (S)—N-(1-((4-(1H-pyrrolo[2,3-b]pyridin-4-yl)phenyl)amino)-1-oxo-3,3-diphenylpropan-2-yl)-1-methyl-1H-pyrazole-5-carboxamide]	39.8 nM
Cn1nccc1C(=O)N[C@H](C(=O)Nc1ccc(-c2ccnc3c2CCN3)cc1)C(c1ccccc1)c1ccccc1 [Example 22, (S)—N-(1-((4-(2,3-dihydro-1H-pyrrolo[2,3-b]pyridin-4-yl)phenyl)amino)-1-oxo-3,3-diphenylpropan-2-yl)-1-methyl-1H-pyrazole-5-carboxamide]	25.1 nM
COc1cnccc1-c1ccc(NC(=O)[C@@H](NC(=O)c2ccnn2C)C(c2ccccc2)c2ccccc2)c(F)c1 [Example 23, (S)—N-(1-((2-fluoro-4-(3-methoxypyridin-4-yl)phenyl)amino)-1-oxo-3,3-diphenylpropan-2-yl)-1-methyl-1H-pyrazole-5-carboxamide]	39.8 nM

Results, then the compound that gave them:

IC50	SMILES
50.1 nM	Cc1nccc(-c2ccc(NC(=O)[C@@H](NC(=O)c3ccnn3C)C(c3ccccc3)c3ccccc3)cc2)c1C [Example 1, (S)—N-(1-((4-(2,3-dimethylpyridin-4-yl)phenyl)amino)-1-oxo-3,3-diphenylpropan-2-yl)-1-methyl-1H-pyrazole-5-carboxamide]
20 nM	Cc1cnccc1-c1ccc(NC(=O)[C@@H](NC(=O)c2ccnn2C)C(c2ccccc2)c2ccccc2)cc1 [Example 4, (S)-1-methyl-N-(1-((4-(3-methylpyridin-4-yl)phenyl)amino)-1-oxo-3,3-diphenylpropan-2-yl)-1H-pyrazole-5-carboxamide]
12.6 nM	Cc1cncc(C)c1-c1ccc(NC(=O)[C@@H](NC(=O)c2ccnn2C)C(c2ccccc2)c2ccccc2)cc1 [Example 6, (S)—N-(1-((4-(3,5-dimethylpyridin-4-yl)phenyl)amino)-1-oxo-3,3-diphenylpropan-2-yl)-1-methyl-1H-pyrazole-5-carboxamide]
15.8 nM	Cc1[nH]c(=O)ccc1-c1ccc(NC(=O)[C@@H](NC(=O)c2ccnn2C)C(c2ccccc2)c2ccccc2)cc1 [Example 11, (S)-1-methyl-N-(1-((4-(2-methyl-6-oxo-1,6-dihydropyridin-3-yl)phenyl)amino)-1-oxo-3,3-diphenylpropan-2-yl)-1H-pyrazole-5-carboxamide]
10 nM	Cc1cc(=O)n(C)cc1-c1ccc(NC(=O)[C@@H](NC(=O)c2ccnn2C)C(c2ccccc2)c2ccccc2)cc1 [Example 12, (S)—N-(1-((4-(1,4-dimethyl-6-oxo-1,6-dihydropyridin-3-yl)phenyl)amino)-1-oxo-3,3-diphenylpropan-2-yl)-1-methyl-1H-pyrazole-5-carboxamide]
7.94 nM	Cc1c(-c2ccc(NC(=O)[C@@H](NC(=O)c3ccnn3C)C(c3ccccc3)c3ccccc3)cc2)ccc(=O)n1C [Example 13, (S)—N-(1-((4-(1,2-dimethyl-6-oxo-1,6-dihydropyridin-3-yl)phenyl)amino)-1-oxo-3,3-diphenylpropan-2-yl)-1-methyl-1H-pyrazole-5-carboxamide]
39.8 nM	Cc1cncc(C)c1-c1ccc(NC(=O)[C@@H](NC(=O)c2ccnn2C)C(c2ccccc2)c2ccccc2)cc1F [Example 14, (S)—N-(1-((4-(3,5-dimethylpyridin-4-yl)-3-fluorophenyl)amino)-1-oxo-3,3-diphenylpropan-2-yl)-1-methyl-1H-pyrazole-5-carboxamide]
50.1 nM	Cc1cnccc1-c1ccc(NC(=O)[C@@H](NC(=O)c2ccnn2C)C(c2ccccc2)c2ccccc2)cc1F [Example 15, (S)—N-(1-((3-fluoro-4-(3-methylpyridin-4-yl)phenyl)amino)-1-oxo-3,3-diphenylpropan-2-yl)-1-methyl-1H-pyrazole-5-carboxamide]
15.8 nM	Cc1c(-c2ccc(NC(=O)[C@@H](NC(=O)c3ccnn3C)C(c3ccccc3)c3ccccc3)cc2F)ccc(=O)n1C [Example 16, (S)—N-(1-((4-(1,2-dimethyl-6-oxo-1,6-dihydropyridin-3-yl)-3-fluorophenyl)amino)-1-oxo-3,3-diphenylpropan-2-yl)-1-methyl-1H-pyrazole-5-carboxamide]
15.8 nM	Cc1cc(=O)n(C)cc1-c1ccc(NC(=O)[C@@H](NC(=O)c2ccnn2C)C(c2ccccc2)c2ccccc2)cc1F [Example 17, (S)—N-(1-((4-(1,4-dimethyl-6-oxo-1,6-dihydropyridin-3-yl)-3-fluorophenyl)amino)-1-oxo-3,3-diphenylpropan-2-yl)-1-methyl-1H-pyrazole-5-carboxamide]
31.6 nM	COc1cncc(F)c1-c1ccc(NC(=O)[C@@H](NC(=O)c2ccnn2C)C(c2ccccc2)c2ccccc2)cc1F [Example 18, N-((2S)-1-((3-fluoro-4-(3-fluoro-5-methoxypyridin-4-yl)phenyl)amino)-1-oxo-3,3-diphenylpropan-2-yl)-1-methyl-1H-pyrazole-5-carboxamide]
31.6 nM	COc1cnccc1-c1ccc(NC(=O)[C@@H](NC(=O)c2ccnn2C)C(c2ccccc2)c2ccccc2)cc1C [Example 20, (S)—N-(1-((4-(3-methoxypyridin-4-yl)-3-methylphenyl)amino)-1-oxo-3,3-diphenylpropan-2-yl)-1-methyl-1H-pyrazole-5-carboxamide]
